{"source": "patent US20020137929A1", "about": "“1 - (3-heterocyclylphenyl) isothiourea, -isourea, -guanidine and -amidine herbicidal agents” (Intellectual Property Department, BASF Aktiengesellschaft, priority 1998, published 2002)", "key": {"ORYSAT (Rice, Tebonnet) [1]": {"test_system": "ORYSAT (Rice, Tebonnet)", "assay": "Preemergence herbicidal evaluation", "assay_type": "in vivo, Oryza sativa, (L.) Tebonnet", "settings": "rated 4-5 weeks after treatment, rating scale 0-9", "in_short": "(§1)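 Rating at 4–5 wk post-spray on a 0–9 visual scale vs control. Application: aqueous acetone, ~0.0156–0.500 kg/ha, to soil surface after seeding, preemergence.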"}, "ORYSAT (Rice, Tebonnet) [2]": {"test_system": "ORYSAT (Rice, Tebonnet)", "assay": "Postemergence herbicidal evaluation", "assay_type": "in vivo, Oryza sativa, (L.) Tebonnet", "settings": "postemergence", "in_short": "(§2)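 Herbicidal effect was judged by eye on a 0–9 scale covering stand, vigor, deformity, size and chlorosis, compared with controls, four to five weeks after seedlings about two weeks old were sprayed (40 psi, ~0.0156–0.500 kg/ha).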"}, "CYPSE (Flatsedge)": {"test_system": "CYPSE (Flatsedge)", "assay": "Preemergence weed control under flooded paddy conditions", "assay_type": "in vivo, Cyperus serotinus", "settings": "rated 3-4 weeks after treatment", "in_short": "(§3)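 Visual injury scored 0-9 against control three to four weeks post-treatment, greenhouse-grown. Application: acetone/water (50/50) solutions dosed directly into flood water (1.5-3 cm over silt loam, planted top 0.5 cm), roughly 0.0313 to 0.500 kg/ha active ingredient.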"}, "[3]": {"test_system": "CHEAL (Lambsquarters, Common)", "assay": "Postemergence herbicidal evaluation", "assay_type": "in vivo, Chenopodium album", "settings": "postemergence", "in_short": "as §2"}, "CASOB (Sicklepod)": {"test_system": "CASOB (Sicklepod)", "assay": "Postemergence herbicidal evaluation", "assay_type": "in vivo, Cassia obtusifolia", "settings": "postemergence", "in_short": "as §2"}, "AMBEL (Ragweed, Common)": {"test_system": "AMBEL (Ragweed, Common)", "assay": "Preemergence herbicidal evaluation", "assay_type": "in vivo, Ambrosia artemisifolia", "settings": "rated 4-5 weeks after treatment, rating scale 0-9", "in_short": "as §1"}, "MOOVA (Monochoria)": {"test_system": "MOOVA (Monochoria)", "assay": "Preemergence weed control under flooded paddy conditions", "assay_type": "in vivo, Monochoria vaginalis", "settings": "rated 3-4 weeks after treatment", "in_short": "as §3"}, "GALAP (Galium)": {"test_system": "GALAP (Galium)", "assay": "Postemergence herbicidal evaluation", "assay_type": "in vivo, Galium aparine", "settings": "postemergence", "in_short": "as §2"}, "ZEAMX (Corn, Field)": {"test_system": "ZEAMX (Corn, Field)", "assay": "Postemergence herbicidal evaluation", "assay_type": "in vivo, Zea mays", "settings": "postemergence", "in_short": "as §2"}, "[4]": {"test_system": "GLXMAW (Soybean, Williams)", "assay": "Preemergence herbicidal evaluation", "assay_type": "in vivo, Glycine max, (L.) Merr. cv Williams", "settings": "rated 4-5 weeks after treatment, rating scale 0-9", "in_short": "as §1"}, "SETVI (Foxtail, Green)": {"test_system": "SETVI (Foxtail, Green)", "assay": "Preemergence herbicidal evaluation", "assay_type": "in vivo, Setaria viridis", "settings": "rated 4-5 weeks after treatment, rating scale 0-9", "in_short": "as §1"}}}
{"smiles": "Cn1c(C(F)(F)F)cc(=O)n(-c2cc(N=C3SCC(=O)N3Cc3ccccn3)c(Cl)cc2F)c1=O", "note": "[Compound 131]", "values": [{"measurement": "Preemergence herbicidal rating ORYSAT", "setting": "ORYSAT (Rice, Tebonnet) [1]; rate 0.0313 kg/ha", "result": 0.0}, {"measurement": "Preemergence herbicidal rating ORYSAT", "setting": "ORYSAT (Rice, Tebonnet) [1]; rate 0.0625 kg/ha", "result": 0.0}, {"measurement": "Preemergence herbicidal rating ORYSAT", "setting": "ORYSAT (Rice, Tebonnet) [1]; rate 0.1250 kg/ha", "result": 0.0}, {"measurement": "Preemergence herbicidal rating ORYSAT", "setting": "ORYSAT (Rice, Tebonnet) [1]; rate 0.2500 kg/ha", "result": 0.0}, {"measurement": "Herbicidal rating ORYSAT", "setting": "ORYSAT (Rice, Tebonnet) [2]; rate 0.0156 kg/ha", "result": 2.0}, {"measurement": "Herbicidal rating ORYSAT", "setting": "ORYSAT (Rice, Tebonnet) [2]; rate 0.0313 kg/ha", "result": 2.5}, {"measurement": "Herbicidal rating ORYSAT", "setting": "ORYSAT (Rice, Tebonnet) [2]; rate 0.0625 kg/ha", "result": 3.0}, {"measurement": "herbicidal effect rating, CYPSE", "setting": "CYPSE (Flatsedge); 0.1250 kg/ha", "result": 0.0}, {"measurement": "herbicidal effect rating, CYPSE", "setting": "CYPSE (Flatsedge); 0.2500 kg/ha", "result": 0.0}, {"measurement": "Herbicidal rating CHEAL", "setting": "[3]; rate 0.0156 kg/ha", "result": 3.0}, {"measurement": "Herbicidal rating CHEAL", "setting": "[3]; rate 0.0313 kg/ha", "result": 5.0}, {"measurement": "Herbicidal rating CHEAL", "setting": "[3]; rate 0.0625 kg/ha", "result": 9.0}, {"measurement": "Herbicidal rating CASOB", "setting": "CASOB (Sicklepod); rate 0.0156 kg/ha", "result": 1.0}, {"measurement": "Herbicidal rating CASOB", "setting": "CASOB (Sicklepod); rate 0.0313 kg/ha", "result": 1.0}, {"measurement": "Herbicidal rating CASOB", "setting": "CASOB (Sicklepod); rate 0.0625 kg/ha", "result": 3.0}, {"measurement": "Preemergence herbicidal rating AMBEL", "setting": "AMBEL (Ragweed, Common); rate 0.0313 kg/ha", "result": 0.0}, {"measurement": "Preemergence herbicidal rating AMBEL", "setting": "AMBEL (Ragweed, Common); rate 0.0625 kg/ha", "result": 0.0}, {"measurement": "Preemergence herbicidal rating AMBEL", "setting": "AMBEL (Ragweed, Common); rate 0.1250 kg/ha", "result": 0.0}, {"measurement": "Preemergence herbicidal rating AMBEL", "setting": "AMBEL (Ragweed, Common); rate 0.2500 kg/ha", "result": 0.0}, {"measurement": "herbicidal effect rating, MOOVA", "setting": "MOOVA (Monochoria); 0.1250 kg/ha", "result": 0.0}, {"measurement": "herbicidal effect rating, MOOVA", "setting": "MOOVA (Monochoria); 0.2500 kg/ha", "result": 2.0}, {"measurement": "Herbicidal rating GALAP", "setting": "GALAP (Galium); rate 0.0156 kg/ha", "result": 1.0}, {"measurement": "Herbicidal rating GALAP", "setting": "GALAP (Galium); rate 0.0313 kg/ha", "result": 3.0}, {"measurement": "Herbicidal rating GALAP", "setting": "GALAP (Galium); rate 0.0625 kg/ha", "result": 3.0}, {"measurement": "Herbicidal rating ZEAMX", "setting": "ZEAMX (Corn, Field); rate 0.0156 kg/ha", "result": 4.5}, {"measurement": "Herbicidal rating ZEAMX", "setting": "ZEAMX (Corn, Field); rate 0.0313 kg/ha", "result": 4.5}, {"measurement": "Herbicidal rating ZEAMX", "setting": "ZEAMX (Corn, Field); rate 0.0625 kg/ha", "result": 4.5}, {"measurement": "Preemergence herbicidal rating GLXMAW", "setting": "[4]; rate 0.0313 kg/ha", "result": 0.0}, {"measurement": "Preemergence herbicidal rating GLXMAW", "setting": "[4]; rate 0.0625 kg/ha", "result": 1.0}, {"measurement": "Preemergence herbicidal rating GLXMAW", "setting": "[4]; rate 0.1250 kg/ha", "result": 1.0}, {"measurement": "Preemergence herbicidal rating GLXMAW", "setting": "[4]; rate 0.2500 kg/ha", "result": 1.0}, {"measurement": "Preemergence herbicidal rating SETVI", "setting": "SETVI (Foxtail, Green); rate 0.0313 kg/ha", "result": 0.0}, {"measurement": "Preemergence herbicidal rating SETVI", "setting": "SETVI (Foxtail, Green); rate 0.0625 kg/ha", "result": 0.0}, {"measurement": "Preemergence herbicidal rating SETVI", "setting": "SETVI (Foxtail, Green); rate 0.1250 kg/ha", "result": 0.0}, {"measurement": "Preemergence herbicidal rating SETVI", "setting": "SETVI (Foxtail, Green); rate 0.2500 kg/ha", "result": 3.0}]}
{"smiles": "Cn1c(C(F)(F)F)cc(=O)n(-c2cc(N=C3SCC(=O)N3Cc3cccnc3)c(Cl)cc2F)c1=O", "note": "[Compound 132, 3-{4-Chloro-2-fluoro-5-{[4-oxo-3-(3-pyridylmethyl)-2-thiazolidinylidene]amino}phenyl}-1-methyl-6-(trifluoromethyl)-2,4 (1H,3H)-pyrimidinedione]", "values": [{"measurement": "Preemergence herbicidal rating ORYSAT", "setting": "ORYSAT (Rice, Tebonnet) [1]; rate 0.0625 kg/ha", "result": 0.0}, {"measurement": "Preemergence herbicidal rating ORYSAT", "setting": "ORYSAT (Rice, Tebonnet) [1]; rate 0.1250 kg/ha", "result": 0.0}, {"measurement": "Preemergence herbicidal rating ORYSAT", "setting": "ORYSAT (Rice, Tebonnet) [1]; rate 0.2500 kg/ha", "result": 1.0}, {"measurement": "Herbicidal rating ORYSAT", "setting": "ORYSAT (Rice, Tebonnet) [2]; rate 0.0156 kg/ha", "result": 2.0}, {"measurement": "Herbicidal rating ORYSAT", "setting": "ORYSAT (Rice, Tebonnet) [2]; rate 0.0313 kg/ha", "result": 3.0}, {"measurement": "Herbicidal rating ORYSAT", "setting": "ORYSAT (Rice, Tebonnet) [2]; rate 0.0625 kg/ha", "result": 3.5}, {"measurement": "herbicidal effect rating, CYPSE", "setting": "CYPSE (Flatsedge); 0.0313 kg/ha", "result": 0.0}, {"measurement": "herbicidal effect rating, CYPSE", "setting": "CYPSE (Flatsedge); 0.0625 kg/ha", "result": 0.0}, {"measurement": "herbicidal effect rating, CYPSE", "setting": "CYPSE (Flatsedge); 0.1250 kg/ha", "result": 0.0}, {"measurement": "herbicidal effect rating, CYPSE", "setting": "CYPSE (Flatsedge); 0.2500 kg/ha", "result": 0.0}, {"measurement": "Herbicidal rating CHEAL", "setting": "[3]; rate 0.0156 kg/ha", "result": 4.0}, {"measurement": "Herbicidal rating CHEAL", "setting": "[3]; rate 0.0313 kg/ha", "result": 4.0}, {"measurement": "Herbicidal rating CHEAL", "setting": "[3]; rate 0.0625 kg/ha", "result": 9.0}, {"measurement": "Herbicidal rating CASOB", "setting": "CASOB (Sicklepod); rate 0.0156 kg/ha", "result": 1.0}, {"measurement": "Herbicidal rating CASOB", "setting": "CASOB (Sicklepod); rate 0.0313 kg/ha", "result": 1.0}, {"measurement": "Herbicidal rating CASOB", "setting": "CASOB (Sicklepod); rate 0.0625 kg/ha", "result": 6.0}, {"measurement": "Preemergence herbicidal rating AMBEL", "setting": "AMBEL (Ragweed, Common); rate 0.0625 kg/ha", "result": 0.0}, {"measurement": "Preemergence herbicidal rating AMBEL", "setting": "AMBEL (Ragweed, Common); rate 0.1250 kg/ha", "result": 4.0}, {"measurement": "Preemergence herbicidal rating AMBEL", "setting": "AMBEL (Ragweed, Common); rate 0.2500 kg/ha", "result": 7.0}, {"measurement": "herbicidal effect rating, MOOVA", "setting": "MOOVA (Monochoria); 0.0313 kg/ha", "result": 6.0}, {"measurement": "herbicidal effect rating, MOOVA", "setting": "MOOVA (Monochoria); 0.0625 kg/ha", "result": 9.0}, {"measurement": "herbicidal effect rating, MOOVA", "setting": "MOOVA (Monochoria); 0.1250 kg/ha", "result": 9.0}, {"measurement": "herbicidal effect rating, MOOVA", "setting": "MOOVA (Monochoria); 0.2500 kg/ha", "result": 9.0}, {"measurement": "Herbicidal rating GALAP", "setting": "GALAP (Galium); rate 0.0156 kg/ha", "result": 2.0}, {"measurement": "Herbicidal rating GALAP", "setting": "GALAP (Galium); rate 0.0313 kg/ha", "result": 2.0}, {"measurement": "Herbicidal rating GALAP", "setting": "GALAP (Galium); rate 0.0625 kg/ha", "result": 3.0}, {"measurement": "Herbicidal rating ZEAMX", "setting": "ZEAMX (Corn, Field); rate 0.0156 kg/ha", "result": 3.5}, {"measurement": "Herbicidal rating ZEAMX", "setting": "ZEAMX (Corn, Field); rate 0.0313 kg/ha", "result": 4.0}, {"measurement": "Herbicidal rating ZEAMX", "setting": "ZEAMX (Corn, Field); rate 0.0625 kg/ha", "result": 4.5}, {"measurement": "Preemergence herbicidal rating GLXMAW", "setting": "[4]; rate 0.0625 kg/ha", "result": 0.0}, {"measurement": "Preemergence herbicidal rating GLXMAW", "setting": "[4]; rate 0.1250 kg/ha", "result": 0.0}, {"measurement": "Preemergence herbicidal rating GLXMAW", "setting": "[4]; rate 0.2500 kg/ha", "result": 2.0}, {"measurement": "Preemergence herbicidal rating SETVI", "setting": "SETVI (Foxtail, Green); rate 0.0625 kg/ha", "result": 0.0}, {"measurement": "Preemergence herbicidal rating SETVI", "setting": "SETVI (Foxtail, Green); rate 0.1250 kg/ha", "result": 3.0}, {"measurement": "Preemergence herbicidal rating SETVI", "setting": "SETVI (Foxtail, Green); rate 0.2500 kg/ha", "result": 9.0}]}
